The target of series [1] is human CYP2D6 (Homo sapiens, UniProt P10635).
For series [2], the target named is T1, human CYP2C19 (Homo sapiens, UniProt P33261).
Series [3] concerns the target T2, human CYP1A2 (Homo sapiens, UniProt P05177).
T2 sequence (P05177 1-516): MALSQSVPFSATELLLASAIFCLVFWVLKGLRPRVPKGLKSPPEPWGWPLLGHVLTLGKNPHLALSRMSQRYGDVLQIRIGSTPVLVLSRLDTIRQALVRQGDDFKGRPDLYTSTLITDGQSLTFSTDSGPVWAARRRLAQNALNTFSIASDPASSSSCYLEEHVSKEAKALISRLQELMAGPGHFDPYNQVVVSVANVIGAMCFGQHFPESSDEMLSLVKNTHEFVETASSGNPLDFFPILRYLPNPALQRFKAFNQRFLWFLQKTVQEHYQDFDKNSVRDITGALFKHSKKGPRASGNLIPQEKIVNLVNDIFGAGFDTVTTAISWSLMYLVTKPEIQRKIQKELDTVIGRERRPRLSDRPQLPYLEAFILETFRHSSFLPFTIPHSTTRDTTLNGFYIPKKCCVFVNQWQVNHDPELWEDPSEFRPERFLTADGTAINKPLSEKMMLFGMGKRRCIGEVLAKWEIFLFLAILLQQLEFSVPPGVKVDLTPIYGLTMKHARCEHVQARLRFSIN
Put plainly: biochemical.

Series [4] addresses T3, human CYP2C9 (Homo sapiens, UniProt P11712).
For series [5], the target named is CYP3A4 (Homo sapiens, UniProt P08684). Put plainly: biochemical.
Sequence of CYP3A4 (P08684 whole entry): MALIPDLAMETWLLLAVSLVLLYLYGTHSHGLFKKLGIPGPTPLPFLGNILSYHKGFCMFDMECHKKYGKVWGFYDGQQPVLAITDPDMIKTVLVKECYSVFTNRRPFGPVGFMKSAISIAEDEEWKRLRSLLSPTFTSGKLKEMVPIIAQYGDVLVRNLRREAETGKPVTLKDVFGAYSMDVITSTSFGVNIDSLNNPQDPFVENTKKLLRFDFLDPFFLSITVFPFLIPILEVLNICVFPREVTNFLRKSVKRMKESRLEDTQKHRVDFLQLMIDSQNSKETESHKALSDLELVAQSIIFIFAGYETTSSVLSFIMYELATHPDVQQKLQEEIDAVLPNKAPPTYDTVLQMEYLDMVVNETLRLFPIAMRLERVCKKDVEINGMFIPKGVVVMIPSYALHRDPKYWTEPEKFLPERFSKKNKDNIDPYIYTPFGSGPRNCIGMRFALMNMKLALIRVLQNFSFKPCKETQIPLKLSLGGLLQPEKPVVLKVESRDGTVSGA
Series [6] concerns the target T1, human CYP2C19. Put plainly: biochemical.
For series [7], the target named is T3, human CYP2C9. Put plainly: biochemical.
The mark [8] stands for this setting: CYP1A2 AC50 (half-maximal activity concentration).
Setting [9] is: CYP3A4 AC50 (half-maximal activity concentration).
Where [10] appears, read: CYP2C19 AC50 (half-maximal activity concentration).
Setting [11] is: CYP2C9 AC50 (half-maximal activity concentration).

SMILES strings stand for the structures. Structures can show the parent of a compound that is named as a salt. Where two headings read alike, the source gives them in different places.

Sequence of human CYP2D6 (P10635 whole entry): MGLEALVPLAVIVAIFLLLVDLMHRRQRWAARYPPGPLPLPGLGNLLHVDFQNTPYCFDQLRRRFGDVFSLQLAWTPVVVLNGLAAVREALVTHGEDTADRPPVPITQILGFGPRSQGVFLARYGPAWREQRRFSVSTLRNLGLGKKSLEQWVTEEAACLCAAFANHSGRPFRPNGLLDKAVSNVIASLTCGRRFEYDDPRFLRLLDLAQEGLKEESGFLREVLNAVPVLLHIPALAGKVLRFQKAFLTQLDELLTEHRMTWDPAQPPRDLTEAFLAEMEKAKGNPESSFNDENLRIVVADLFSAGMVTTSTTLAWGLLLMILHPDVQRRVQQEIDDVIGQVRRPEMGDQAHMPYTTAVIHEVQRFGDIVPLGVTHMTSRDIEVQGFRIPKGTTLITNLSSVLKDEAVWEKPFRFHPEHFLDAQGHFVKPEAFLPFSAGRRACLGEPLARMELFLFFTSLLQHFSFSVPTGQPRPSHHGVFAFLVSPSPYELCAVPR
T3 sequence (P11712 whole entry): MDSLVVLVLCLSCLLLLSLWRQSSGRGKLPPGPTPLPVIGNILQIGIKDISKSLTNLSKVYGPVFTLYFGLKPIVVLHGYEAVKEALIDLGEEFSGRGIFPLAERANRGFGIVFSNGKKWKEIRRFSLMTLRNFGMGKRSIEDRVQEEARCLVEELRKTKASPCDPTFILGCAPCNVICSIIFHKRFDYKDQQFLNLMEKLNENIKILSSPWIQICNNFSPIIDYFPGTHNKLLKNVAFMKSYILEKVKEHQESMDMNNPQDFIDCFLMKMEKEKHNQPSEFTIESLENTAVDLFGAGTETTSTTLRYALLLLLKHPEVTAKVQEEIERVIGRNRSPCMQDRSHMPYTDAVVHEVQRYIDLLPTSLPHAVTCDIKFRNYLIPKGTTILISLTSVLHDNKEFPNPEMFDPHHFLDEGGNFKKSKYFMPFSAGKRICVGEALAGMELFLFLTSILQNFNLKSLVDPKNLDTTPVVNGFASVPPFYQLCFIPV
T1 sequence (P33261 whole entry): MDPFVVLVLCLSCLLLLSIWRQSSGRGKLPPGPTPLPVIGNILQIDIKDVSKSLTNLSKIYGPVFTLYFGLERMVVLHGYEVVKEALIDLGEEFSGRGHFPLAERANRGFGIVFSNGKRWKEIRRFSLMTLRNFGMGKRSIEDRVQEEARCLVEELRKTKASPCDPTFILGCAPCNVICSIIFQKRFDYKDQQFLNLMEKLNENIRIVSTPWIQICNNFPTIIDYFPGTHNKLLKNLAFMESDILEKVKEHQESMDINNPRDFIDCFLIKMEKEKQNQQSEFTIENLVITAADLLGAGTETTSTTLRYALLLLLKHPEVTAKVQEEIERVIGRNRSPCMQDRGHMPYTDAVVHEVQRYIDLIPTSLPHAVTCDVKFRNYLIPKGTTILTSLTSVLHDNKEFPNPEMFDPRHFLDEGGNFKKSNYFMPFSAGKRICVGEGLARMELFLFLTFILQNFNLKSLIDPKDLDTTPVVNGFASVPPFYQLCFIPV

One may read the AC50 as the concentration at which the activity in the assay is half-maximal. Low values mean greater potency, high ones weaker potency. As for `Clc1nnc(Cl)c2ccccc12` [1,4-Dichlorophthalazine], in series [1], the “CYP2D6 AC50 (half-maximal activity concentration)” value (from here on “CYP2D6 AC50”) is “Inconclusive inhibitor”. In addition, in series [2], the “CYP2C19 AC50 (half-maximal activity concentration)” value (“CYP2C19 AC50” for short) is “Inactive”. The figures for the AC50 in series [3] and in series [5] were 9.06 µM and 5.51 µM, respectively. Also, the “CYP2C9 AC50 (half-maximal activity concentration)” value (shortened to “CYP2C9 AC50”) in series [4] is recorded as “Inactive”.

`O=[N+]([O-])c1cccc(Cl)c1Cl` [2,3-Dichloronitrobenzene]: the “CYP2D6 AC50” value in series [1] is “Inactive”. Moreover, the “CYP2C19 AC50” value in series [2] is listed as “Inactive”. Further, the half-maximal activity concentration (AC50) in series [3] (setting [8]) was 34.6 µM; in series [5] (setting [9]), 29.1 µM. For the same molecule, the “CYP2C9 AC50” value in series [4] is given as “Inconclusive activator”.

For `O=[N+]([O-])c1c(Cl)cc(Cl)cc1Cl` [2,4,6-Trichloronitrobenzene], the “CYP2D6 AC50” value in series [1] is recorded as “Inactive”. The “CYP2C19 AC50” value in series [2] is “Inactive”. The AC50 in series [3] (setting [8]) came out at 34.7 µM; in series [5] (setting [9]), 6.35 µM. In addition, in series [4], the “CYP2C9 AC50” value is “Inactive”.

As for `O=[N+]([O-])c1ccccc1CCl` [2-Nitrobenzyl chloride], in series [1], the “CYP2D6 AC50” value is listed as “Inconclusive inhibitor”. In addition, the “CYP2C19 AC50” value in series [2] is on record as “Inconclusive inhibitor”. In addition, the results for the AC50 in series [3] (setting [8]) and in series [5] (setting [9]) were 56.1 µM and 36.1 µM, respectively. For the same molecule, the “CYP2C9 AC50” value in series [4] is “Inactive”.

Consider `O=C(O)c1ccc(Cl)c(Cl)c1` [3,4-Dichlorobenzoic acid], for which the “CYP2D6 AC50” value in series [1] is “Inactive”. Moreover, the “CYP2C19 AC50” value in series [2] is recorded as “Inconclusive inhibitor”. Further, the concentration at half-maximal activity (AC50) in series [3] (setting [8]) is 59.2 µM; in series [5] (setting [9]) it was 59.7 µM. Further, the “CYP2C9 AC50” value in series [4] is on record as “Inconclusive inhibitor”.

Consider `O=[N+]([O-])c1cccc2cccnc12` [8-Nitroquinoline], for which the “CYP2D6 AC50” value in series [1] is given as “Inactive”. For the same molecule, the “CYP2C19 AC50” value in series [2] is “Inconclusive inhibitor”. Besides, the AC50 is 33.9 µM in series [3] (setting [8]) and 38 µM in series [5] (setting [9]). Besides, the “CYP2C9 AC50” value in series [4] is recorded as “Inactive”.

Turning to `COC(=O)c1cccc(C(=O)OC)c1` [Dimethyl isophthalate], the “CYP2D6 AC50” value in series [1] is “Inactive”. Besides, the “CYP2C19 AC50” value in series [2] is “Inconclusive inhibitor”. The half-maximal activity concentration (AC50) was 9.71 µM in series [3] and 52.6 µM in series [5]. Further, the “CYP2C9 AC50” value in series [4] is “Inactive”.

With `COC(=O)c1ccc(C(=O)OC)cc1` [Dimethyl terephthalate], in series [1], the “CYP2D6 AC50” value was “Inactive”. For the same molecule, in series [2], the “CYP2C19 AC50” value is recorded as “Inactive”. Besides, the AC50 was determined as 9.66 µM in series [3] (setting [8]) and 40.1 µM in series [5] (setting [9]). For the same molecule, the “CYP2C9 AC50” value in series [4] was “Inactive”.

For the molecule `CCCCc1c(C)nc(NCC)[nH]c1=O` [Ethirimol], the “CYP2D6 AC50” value in series [1] is “Inactive”. Further, in series [2], the “CYP2C19 AC50” value is listed as “Inconclusive inhibitor”. The AC50 in series [3] (setting [8]) was 31.1 µM; in series [5] (setting [9]), 31.8 µM. For the same molecule, the “CYP2C9 AC50” value in series [4] is reported as “Inactive”.

Turning to `CCOC(=O)C1OC1(C)c1ccccc1` (centres unmarked) [Ethyl methylphenylglycidate], the “CYP2D6 AC50” value in series [1] is given as “Inconclusive inhibitor”. The AC50 in series [3] (setting [8]) was 34.6 µM; in series [6] (setting [10]), 45.4 µM; in series [5] (setting [9]), 37.7 µM; in series [7] (setting [11]) it was 61.4 µM.

Take `CCOC(=O)COC(=O)c1ccccc1C(=O)OCC` [Ethyl phthalyl ethyl glycolate]: the “CYP2D6 AC50” value in series [1] is recorded as “Inactive”. Also, the AC50 in series [3] was found to be 7.68 µM; in series [6], 20.8 µM; in series [5] it was 47.4 µM; in series [7] it was 31.9 µM.

Consider `CCOC(=O)C(C)Oc1ccc(Oc2nc3ccc(Cl)cc3o2)cc1` (centres unmarked) [Fenoxaprop-ethyl], for which the “CYP2D6 AC50” value in series [1] was “Inconclusive inhibitor”. The AC50 in series [3] (setting [8]) worked out at 23.9 µM; in series [6] (setting [10]), 53 µM; in series [5] (setting [9]), 28.4 µM; in series [7] (setting [11]), 44 µM.

Regarding `N#Cc1c[nH]cc1-c1cccc2c1OC(F)(F)O2` [Fludioxonil], in series [1], the “CYP2D6 AC50” value is recorded as “Inactive”. Moreover, the AC50 in series [3] (setting [8]) was found to be 1.53 µM; in series [6] (setting [10]) it was 5.3 µM; in series [5] (setting [9]) it was 5.11 µM; in series [7] (setting [11]), 18.6 µM.

Regarding `CC(C)N(C(=O)COc1nnc(C(F)(F)F)s1)c1ccc(F)cc1` [Flufenacet], the “CYP2D6 AC50” value in series [1] is “Inactive”. Further, the AC50 in series [3] (setting [8]) is 37 µM; in series [6] (setting [10]), 3.4 µM; in series [5] (setting [9]) it was 19.3 µM; in series [7] (setting [11]) it was 35.6 µM.

In the case of `N#Cc1cc(I)c(O)c(I)c1` [Ioxynil], the “CYP2D6 AC50” value in series [1] is “Inactive”. Moreover, the AC50 in series [3] (setting [8]) was 46.2 µM; in series [6] (setting [10]) it was 83.2 µM; in series [5] (setting [9]), 38.5 µM; in series [7] (setting [11]), 22.4 µM.

Regarding `O=C(NC(=O)c1c(F)cccc1F)Nc1cc(Cl)c(OC(F)(F)C(F)C(F)(F)F)cc1Cl` (centres unmarked) [Lufenuron], the “CYP2D6 AC50” value in series [1] was “Inactive”. In addition, the half-maximal activity concentration (AC50) turned out to be 35.7 µM in series [3] (setting [8]), 10.9 µM in series [6] (setting [10]), 7.45 µM in series [5] (setting [9]) and 11.3 µM in series [7] (setting [11]).

As to `CCCCCC1C(=O)CCC1CC(=O)OC` (centres unmarked) [Methyl dihydrojasmonate], the “CYP2D6 AC50” value in series [1] is on record as “Inconclusive inhibitor”. Besides, the AC50 in series [3] (setting [8]) is 27.2 µM; in series [6] (setting [10]), 2.53 µM; in series [5] (setting [9]) it was 8.73 µM; in series [7] (setting [11]), 28.4 µM.

In the case of `BrC(Br)C(Br)(Br)Br` [Pentabromoethane], the “CYP2D6 AC50” value in series [1] is reported as “Inconclusive inhibitor”. The AC50 in series [3] (setting [8]) stood at 33.2 µM; in series [6] (setting [10]) it was 48.6 µM; in series [5] (setting [9]), 16.1 µM; in series [7] (setting [11]), 22.7 µM.

Turning to `Clc1nc(Cl)c(Cl)c(Cl)c1Cl` [Pentachloropyridine], the “CYP2D6 AC50” value in series [1] is “Inactive”. Besides, the AC50 in series [3] (setting [8]) was 41.8 µM; in series [6] (setting [10]), 61.1 µM; in series [5] (setting [9]) it was 8.61 µM; in series [7] (setting [11]), 62.4 µM.

On to `CSc1nc(NC(C)C)nc(NC(C)C)n1` [Prometryn], for which, in series [1], the “CYP2D6 AC50” value was “Inactive”. In addition, the AC50 came out at 17.3 µM in series [3] (setting [8]), 71 µM in series [6] (setting [10]), 29.1 µM in series [5] (setting [9]) and 58.2 µM in series [7] (setting [11]).

For `CC(C)(C)c1ccc(CSc2cnn(C(C)(C)C)c(=O)c2Cl)cc1` [Pyridaben], the “CYP2D6 AC50” value in series [1] is given as “Inactive”. Moreover, the AC50 in series [3] (setting [8]) came to 25.6 µM; in series [6] (setting [10]), 8.29 µM; in series [5] (setting [9]), 4.7 µM; in series [7] (setting [11]), 7.2 µM.

As to `CC(COc1ccc(Oc2ccccc2)cc1)Oc1ccccn1` (centres unmarked) [Pyriproxyfen], in series [1], the “CYP2D6 AC50” value is recorded as “Inactive”. Besides, the AC50 turned out to be 17.3 µM in series [3] (setting [8]), 12.4 µM in series [6] (setting [10]), 29.7 µM in series [5] (setting [9]) and 12 µM in series [7] (setting [11]).

In the case of `CCCCCCCCOS(=O)(=O)O` [Sodium octyl sulfate], the “CYP2D6 AC50” value in series [1] is listed as “Inactive”. In addition, the AC50 stood at 68.4 µM in series [3], 52.3 µM in series [6], 62.6 µM in series [5] and 30.6 µM in series [7].

On to `O=C(NC(=O)c1c(F)cccc1F)Nc1cc(Cl)c(F)c(Cl)c1F` [Teflubenzuron], for which the “CYP2D6 AC50” value in series [1] is reported as “Inactive”. Moreover, the AC50 in series [3] (setting [8]) was 32.5 µM; in series [6] (setting [10]), 69.2 µM; in series [5] (setting [9]), 57.7 µM; in series [7] (setting [11]), 46.5 µM.

Take `IC(I)=C(I)I` [Tetraiodoethene]: the “CYP2D6 AC50” value in series [1] is given as “Inactive”. Also, the AC50 in series [3] (setting [8]) worked out at 13 µM; in series [6] (setting [10]), 9.09 µM; in series [5] (setting [9]), 19.5 µM; in series [7] (setting [11]), 3.57 µM.

As for `O=CC(Br)(Br)Br` [Tribromoacetaldehyde], the “CYP2D6 AC50” value in series [1] is “Inconclusive inhibitor”. In addition, the AC50 in series [3] (setting [8]) was 29.6 µM; in series [6] (setting [10]) it was 53.3 µM; in series [5] (setting [9]), 10.2 µM; in series [7] (setting [11]), 18.4 µM.

As for `O=P(Oc1ccccc1)(Oc1ccccc1)Oc1ccccc1` [Triphenyl phosphate], the “CYP2D6 AC50” value in series [1] is recorded as “Inactive”. The AC50 in series [3] (setting [8]) came to 10.8 µM; in series [6] (setting [10]), 6.53 µM; in series [5] (setting [9]) it was 6.42 µM; in series [7] (setting [11]), 6.87 µM.

Regarding `c1ccc(-c2ccccc2-c2ccccc2)cc1` [o-Terphenyl], the “CYP2D6 AC50” value in series [1] is recorded as “Inactive”. The AC50 stood at 2.91 µM in series [3] (setting [8]), 15.9 µM in series [6] (setting [10]), 24.7 µM in series [5] (setting [9]) and 26.5 µM in series [7] (setting [11]).

For the origin of these results see article PMC12155096 (International Journal of Molecular Sciences, 2025).
